# Source: patent US7816560B1, “Long chain n-alkyl compounds and oxa-derivatives thereof” (Thomas Jefferson University, priority 1999, dated 2010)
# Like-named read-outs stand apart in the source and are kept apart here.
# What was measured:
# Hepatitis B virus (HBV) = test: Secretion of enveloped HBV from Hep G2.2.15 cells, antigen capture/PCR assay; format: cell-based
# Source text: Pairs of wells were used for each concentration point.
# ^2IC 50: The concentration of compound that prevented the secretion of 50% of the amount of HBV detected in the medium from wells containing untreated cultures.
# MDBK cells = test: Toxicity / cell cytotoxicity in MDBK cells; format: cell-based; conditions: for % Viability at 10 μM: N-alkyl DNJ at 10 μM; for % Viability at 100 μM: N-alkyl DNJ at 100 μM
# [1] = molecular target: T1, ceramide glucosyl transferase (CerGlcT) (Homo sapiens, UniProt Q16739); test: Inhibition of ceramide glucosyl transferase / glycolipid synthesis; format: biochemical; conditions: for IC50: N-alkyl DNJ derivatives; for Inhibitor of glycolipid synthesis: Yes/No
# T1 sequence (Q16739 1-394): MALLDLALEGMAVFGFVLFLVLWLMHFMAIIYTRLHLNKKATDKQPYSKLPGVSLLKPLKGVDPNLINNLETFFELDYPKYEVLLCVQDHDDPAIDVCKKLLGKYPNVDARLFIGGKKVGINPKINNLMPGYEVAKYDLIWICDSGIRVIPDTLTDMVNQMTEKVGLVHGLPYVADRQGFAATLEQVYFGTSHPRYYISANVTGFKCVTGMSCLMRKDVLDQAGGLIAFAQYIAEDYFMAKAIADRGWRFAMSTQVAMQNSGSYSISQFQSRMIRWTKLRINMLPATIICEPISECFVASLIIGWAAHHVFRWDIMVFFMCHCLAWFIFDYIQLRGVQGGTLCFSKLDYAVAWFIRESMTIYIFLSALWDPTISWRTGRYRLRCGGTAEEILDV
# α-glucosidase = test: Inhibition of α-glucosidase; format: biochemical; conditions: for IC50: N-alkyl DNJ derivatives; for Inhibitor of α glucosidase: Yes/No
# Source text: The inhibitory activity (IC50) and the cell cytotoxicity (IC50) of various compounds, as well as their effect on α-glucosidase and ceramide glucosyl transferase, are shown in Table 2.
# BVDV = BVDV plaque reduction and yield assays in MDBK cells; format: cell-based, bovine viral diarrhea virus; conditions: for Anti-viral effect on BVDV in MDBK cells: Yes/No
# [2] = Toxicity / cell cytotoxicity in MDBK cells; format: cell-based; conditions: bovine
# HBV [3] = test: Secreted HBV DNA by Southern blot hybridization; format: cell-based, hepatitis B virus; conditions: HepG2.2.15 cells, seven days
# Description: Secreted DNA analysis: Secreted DNA analysis was performed by the method of Wei et al. (J. Virol. 70:6455-6458, 1996). […] Media containing drug was changed every two days and on the 7th day the media taken and the virus concentrated by pelleting through 20% sucrose for 16 hours (SW 41 rotor, 36,000 RPM). Virus was resuspended in 400 μL of 10 mM TRIS (pH 7.9), 10 mM EDTA (pH 8.0), and 10 mM MgCl2. Samples were split into two 200 μL aliquots and labeled as +Dnase and −Dnase. To both tubes, 15 μl of proteinase K was added to a final concentration of 750 μg/ml for one hour at 37° C. After one hour, 10 pl Dnase was added to the tube labeled +Dnase (final concentration is 50 units/ml) and incubated at 37° C. for one hour. SDS was added to a final concentration of 1% and additional proteinase K added to a final concentration of 500 μg/ml and the reaction allowed to proceed at 37° C. for 3-4 hours. DNA was than purified by phenol/chloroform extraction. DNA was separated on 1% agarose gel and probed with ^32P labeled probes as described (Mehta et al., Proc. Natl. Acad. Sci. USA 94:1822-1827, 1997).
# HepG2.2.15 cells were grown for seven days in the absence or presence of NB-DNJ (1000 μg/ml), NN-DNJ (20 μg/ml) or NN-DGJ (20 μg/ml), respectively. After seven days, virus was isolated from these cell cultures, concentrated, and purified. Secreted HBV DNA was detected by Southern blot hybridization. HBV viral DNA from untreated cells was readily detected. The secretion of HBV DNA from treated HepG2.2.15 was also detected.
# HBV polymerase = molecular target: T2, HBV polymerase (Hepatitis B virus genotype D subtype ayw, UniProt P03156); test: Endogenous polymerase assay on purified HBV virions; format: biochemical
# T2 construct: HBV virions were purified from the culture medium of untreated cells by ultracentrifugation and the polymerase activity (in the presence of the indicated compounds) tested; expressed in transfected cells; host or cells: Hep G2.2.15 (HepG2 stably transfected with a dimer of the HBV genome); virions pelleted from the culture medium
# T2 sequence (P03156 whole entry): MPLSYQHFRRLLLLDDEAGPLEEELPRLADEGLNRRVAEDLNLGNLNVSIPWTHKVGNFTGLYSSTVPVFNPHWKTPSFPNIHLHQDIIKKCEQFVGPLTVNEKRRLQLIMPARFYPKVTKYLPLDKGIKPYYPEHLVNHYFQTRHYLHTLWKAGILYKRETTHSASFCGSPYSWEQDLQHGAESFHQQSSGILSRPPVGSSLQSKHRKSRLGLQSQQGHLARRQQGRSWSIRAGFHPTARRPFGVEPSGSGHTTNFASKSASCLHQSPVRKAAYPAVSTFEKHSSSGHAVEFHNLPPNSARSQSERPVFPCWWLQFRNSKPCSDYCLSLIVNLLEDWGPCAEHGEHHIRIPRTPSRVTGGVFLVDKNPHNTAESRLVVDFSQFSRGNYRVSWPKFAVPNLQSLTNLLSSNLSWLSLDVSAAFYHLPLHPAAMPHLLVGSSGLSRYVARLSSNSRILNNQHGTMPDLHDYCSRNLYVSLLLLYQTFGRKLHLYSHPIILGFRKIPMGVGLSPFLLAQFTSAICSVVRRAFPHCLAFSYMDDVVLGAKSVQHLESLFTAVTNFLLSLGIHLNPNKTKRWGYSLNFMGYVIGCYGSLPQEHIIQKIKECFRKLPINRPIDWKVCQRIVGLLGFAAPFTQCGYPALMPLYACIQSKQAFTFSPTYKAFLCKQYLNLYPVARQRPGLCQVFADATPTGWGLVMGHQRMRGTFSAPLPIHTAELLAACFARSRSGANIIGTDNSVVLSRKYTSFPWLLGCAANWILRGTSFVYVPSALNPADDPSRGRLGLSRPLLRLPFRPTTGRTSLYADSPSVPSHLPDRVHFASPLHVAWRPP
# Description: Endogenous polymerase assay: Media containing HBV from Hep G2.2.15 cells was pelleted through 20% sucrose (SW 28 Rotor, 24,000 RPM) for 16 hours and the pellet re-suspended in 50 μl of a mixture containing 50 mM Tris (pH 7.5), 75 mM NH4Cl, 1 mM EDTA, 25 mM MgCl2, 0.1% β-mercaptoethanol, 0.5% NP-40, 0.4 mM each of dATP, dGTP, dTTP and 10 μl of P^32 labeled dCTP. […] DNA was purified by a phenol/chloroform extraction and ethanol precipitation.
# HBV DNA replication involves the conversion of a pregenomic RNA (pgRNA) into DNA by the action of the HBV polymerase. Current nucleoside analogue drugs (e.g., 3TC) for treating HBV target this reaction, preventing the formation and secretion of HBV viral DNA. Because the iminosugar N-nonyl-DGJ prevents the formation of HBV rc DNA, it was important to determine whether N-nonyl-DGJ was acting by inhibiting the elongation step of the polymerase. HBV virions from normal and drug treated Hep G2.2.15 cells were purified and the endogenous polymerase activity was measured. HBV virions were purified from the culture medium of untreated cells by ultracentrifugation and the polymerase activity (in the presence of the indicated compounds) tested by the method of Ganem et al. (1998). Briefly, partially purified viral particles were incubated overnight with the indicated concentrations of compound and 10 μCi of ^32P-dCTP. Viral DNA was purified by phenol extraction and ethanol precipitation and resolved on a 1.2% agarose gel. The gel was dried and viral DNA bands detected using a Phospholmager.
# HBV [4] = test: Intracellular HBV DNA in HepG2.2.15 cells by Southern blot; format: cell-based, hepatitis B virus; conditions: seven days; for Effect on intracellular HBV DNA: 3TC 1 μg/ml, NB-DNJ 1000 μg/ml, NN-DNJ and NN-DGJ 2 or 20 μg/ml
# Description: Intracellular DNA analysis: Hep G2.2.15 cells were either left untreated or treated with the compounds listed above for seven days and the total DNA extracted as described (Mehta et al., ibid). DNA (20 μg) was digested with HindIII, resolved through a 1.2% agarose gel and transferred to nylon membranes. Membranes were then hybridized with a ^32P labeled probe containing the total HBV genome and developed as described (Lu et al., Proc. Natl. Acad. Sci. USA 94:2380-2385, 1997). The relaxed circular (rc), linear (lin), and closed circular (CCC) DNA were confirmed by enzymatic digestion.
# An infected cell contains several forms of HBV DNA which represent different stages in the HBV life cycle. For example, covalently closed circular DNA (CCC DNA) is the nuclear form of the DNA and is thought to be the viral template (Heermann & Gerlich, 1992). In contrast, the relaxed circular DNA (re DNA) and linear forms (lin) are associated with the viral particle and their presence is an indicator of encapsidation of the viral pre-genomic RNA and the subsequent reverse transcription into progeny DNA (Ganem, Curr. Top. Microbiol. Immunol. 168:61-83, 1991). […] The amount of virus associated with the cells was detected seven days later by Southern blot analysis. The locations of the HBV relaxed circular DNA (rcDNA), covalently close circular (CCC) DNA, and single stranded (SS) DNA was identified by relative mobility.
# Hep G2.2.15 cells [5] = test: MTT toxicity in Hep G2.2.15 cultures; conditions: Hep G2.2.15 cultures at conclusion of experiment (10 days)
# Hep G2.2.15 cells [6] = tested on: Hep G2.2.15 cells
# [7] = Hepatitis B virus, HepG2.2.15, 216 h, Hep G2.2.15 cells, nine days of incubation, read-out: IC 50, secretion of HBV
# [8] = MDBK cells, read-out: Anti-viral effect on BVDV in MDBK cells IC50
# [9] = Bovine viral diarrhea virus isolates and strains, MDBK, read-out: Anti-viral effect on BVDV in MDBK cells IC50
smiles,measurement,setting,value
"Nc1ccn([C@@H]2CS[C@H](CO)O2)c(=O)n1 [3TC, reference compound]",IC50,Hepatitis B virus (HBV); [7],5 µM
CCCCCCN1C[C@H](O)[C@@H](O)[C@H](O)[C@H]1CO [C6],% Viability at 10 μM,MDBK cells,73%
same,% Viability at 100 μM,MDBK cells,71%
same,IC50,[1],23.8 µM
CCCCCCCCN1C[C@H](O)[C@@H](O)[C@H](O)[C@H]1CO [C8],% Viability at 10 μM,MDBK cells,70%
same,% Viability at 100 μM,MDBK cells,71%
same,IC50,[1],16.8 µM
CCCCCCCCCCN1C[C@H](O)[C@@H](O)[C@H](O)[C@H]1CO [C10],% Viability at 10 μM,MDBK cells,73%
same,% Viability at 100 μM,MDBK cells,43%
same,IC50,α-glucosidase,0.48 µM
same,IC50,[1],3.1 µM
CCCCCCCCCCCCN1C[C@H](O)[C@@H](O)[C@H](O)[C@H]1CO [C12],% Viability at 10 μM,MDBK cells,86%
same,% Viability at 100 μM,MDBK cells,1%
same,IC50,[1],5.2 µM
"OC[C@H]1NC[C@H](O)[C@@H](O)[C@@H]1O [DNJ, deoxynorjirimycin, reference compound]",Inhibitor of α glucosidase,α-glucosidase,Yes
same,IC50,BVDV; [8],20 µM
same,Anti-viral effect on BVDV in MDBK cells,BVDV,Yes
"CCOCCCCCCN1C[C@H](O)[C@@H](O)[C@@H](O)[C@H]1C [N-7-oxa-nonyl MeDGJ, N-(7-oxa-nonyl)-1,5,6-trideoxy-1,5-imino-D-galactitol]",CC50,[2],2100 µM
same,Inhibitor of α glucosidase,α-glucosidase,No
same,Selectivity index (CC50/IC50),BVDV; BVDV in MDBK cells,1400
same,IC50,BVDV; [9],1.5 µM
same,Anti-viral effect on BVDV in MDBK cells,BVDV,Yes
same,Inhibitor of glycolipid synthesis,[1],No
"CCCCN1C[C@H](O)[C@@H](O)[C@@H](O)[C@H]1CO [N-butyl DGJ, reference compound]",Inhibitor of α glucosidase,α-glucosidase,No
same,Anti-viral effect on BVDV in MDBK cells,BVDV,No
"CCCCN1C[C@H](O)[C@@H](O)[C@H](O)[C@H]1CO [N-butyl DNJ, N-butyl deoxynojiricmycin, reference compound]",Decrease of secreted virus DNA,HBV [3]; 1000 μg/ml,about 3 fold
same,CC50,MDBK cells,> 10000 µM
same,% Viability at 10 μM,MDBK cells,74%
same,% Viability at 100 μM,MDBK cells,77%
same,IC50,α-glucosidase,0.57 µM
same,Inhibitor of α glucosidase,α-glucosidase,Yes
same,IC50,BVDV; [8],60 to 120 µM
same,Anti-viral effect on BVDV in MDBK cells,BVDV,Yes
same,Effect on HBV polymerase activity,HBV polymerase; 4.52 mM,no effect on polymerase activity
same,Effect on intracellular HBV DNA,HBV [4],dramatic increase in the replicative forms of HBV DNA
"CCCCCCCCCN1C[C@H](O)[C@@H](O)[C@@H](O)[C@H]1CO [N-nonyl DGJ, N-nonyl-1,5-dideoxy-1,5-imino-D-galactitol]",Decrease of secreted virus DNA,HBV [3]; 20 μg/ml,about 14 fold
same,CC50,[2],250 µM
same,Inhibitor of α glucosidase,α-glucosidase,No
same,IC50,BVDV; [9],5 µM
same,Anti-viral effect on BVDV in MDBK cells,BVDV,Yes
same,Effect on HBV polymerase activity,HBV polymerase; 69 μM,no effect on polymerase activity
same,Reduction of enveloped HBV in the culture medium,"Hepatitis B virus (HBV); Hep G2.2.15 cells, compared with untreated controls, nine days",at least as effective as NN-DNJ in reducing the HBV secretion
same,IC50,Hepatitis B virus (HBV); [7],1.5 to 5 µM
same,IC50,"Hepatitis B virus (HBV); Hepatitis B virus, HepG2.2.15, read-out: IC50, HBV secretion",~0.5 µM
same,Reduction of intracellular HBV DNA,HBV [4]; 2 or 20 μg/ml,greater than 25 fold
same,Effect on intracellular HBV DNA,HBV [4],almost complete disappearance of intracellular HBV DNA
same,TOX 50 (MTT activity reduced to 50%),Hep G2.2.15 cells [5],>200 µM
"CCCCCCCCCN1C[C@H](O)[C@@H](O)[C@H](O)[C@H]1CO [N-nonyl DNJ, N-nonyl-deoxynojirimycin]",Decrease of secreted virus DNA,HBV [3]; 20 μg/ml,~1.5 fold
same,CC50,MDBK cells,250 µM
same,% Viability at 10 μM,MDBK cells,56%
same,% Viability at 100 μM,MDBK cells,41%
same,Inhibitor of α glucosidase,α-glucosidase,Yes
same,IC50,BVDV; [8],2 to 3 µM
same,Anti-viral effect on BVDV in MDBK cells,BVDV,Yes
same,Effect on HBV polymerase activity,HBV polymerase; 69 μM,no effect on polymerase activity
same,TOX 50 (MTT activity reduced to 50%),Hep G2.2.15 cells [6],>100 µM
same,IC50,"Hepatitis B virus (HBV); Hep G2.2.15 cells, antigen capture method, read-out: IC50, HBV secretion",~1 µM
same,IC50,"Hepatitis B virus (HBV); Hep G2.2.15 cells, nine days of incubation, read-out: IC 50, secretion of HBV",0.4 to 4 µM
same,Effect on intracellular HBV DNA,HBV [4],did not cause a large increase in intracellular HBV DNA but rather a reduction
"CCCCCCCCCN1C[C@H](O)[C@@H](O)[C@@H](O)[C@H]1C [N-nonyl MeDGJ, N-nonyl-1,5,6-trideoxy-1,5-imino-D-galactitol]",Inhibitor of α glucosidase,α-glucosidase,No
same,IC50,"BVDV; Bovine viral diarrhea virus isolates and strains, MDBK, read-out: IC50, BVDV plaques",< 2.5 µM
same,IC50,BVDV; [9],2 to 3 µM
same,Anti-viral effect on BVDV in MDBK cells,BVDV,Yes
same,Inhibitor of glycolipid synthesis,[1],No
same,melting point,,49 to 51 °C
